Converted amounts (≈) assume the structure as drawn.
Columns and labels:
[1] = system: Klebsiella pneumoniae; test: microbe, parasite or virus in culture; conditions: ATCC 700603, 18 h, ASSAY_TEST Inhibition of Bacterial Growth, detection method Absorption (OD600), MEDIA CAMHB, plate type 384well, NBS, CORNING #3640
Description: Antibacterial activity against Klebsiella pneumoniae MDR ATCC 70063 (CO-ADD:GN_003); MIC in CAMBH media using NBS plates, by OD(600)

[2] = system: Pseudomonas aeruginosa; test: Antibacterial activity against Pseudomonas aeruginosa PAO397 [PAO1 d(mexAB-oprM) d(mexCD-oprJ) d(mexEF-oprN) d(mexJKL) d(mexXY) d(opmH)] (CO-ADD:GN_211); MIC in CAMBH media using NBS plates, by OD(600); assay type: functional; conditions: ASSAY_TEST Inhibition of Bacterial Growth, detection method Absorption (OD600), MEDIA CAMHB, plate type 384well, CORNING #3640, time 18 hr
[3] = system: Pseudomonas aeruginosa; test: microbe, parasite or virus in culture; conditions: ATCC 27853, 18 h, ASSAY_TEST Inhibition of Bacterial Growth, detection method Absorption (OD600), MEDIA CAMHB, plate type 384well, NBS, CORNING #3640
Description: Antibacterial activity against Pseudomonas aeruginosa ATCC 27853 (CO-ADD:GN_042); MIC in CAMBH media using NBS plates, by OD(600)

[4] = system: Escherichia coli; test: microbe, parasite or virus in culture; conditions: ATCC 25922, 18 h, ASSAY_TEST Inhibition of Bacterial Growth, detection method Absorption (OD600), MEDIA CAMHB, plate type 384well, NBS, CORNING #3640
Description: Antibacterial activity against Escherichia coli ATCC 25922 (CO-ADD:GN_001); MIC in CAMBH media using NBS plates, by OD(600)

[5] = system: HEK293; test: cells; assay type: functional, Homo sapiens, ATCC CRL1573; conditions: Homo sapiens, ATCC CRL1573, HEK293; ASSAY_TEST Inhibition of Cell Viability; detection method Resazurin; Fluorescence (ex560/em590); MEDIA DMEM with 10% FBS; plate type 384well; TC; CORNING #3712; time 18 hr; read-out: CC50
[6] = system: Candida albicans; test: microbe, parasite or virus in culture; conditions: ATCC 90028, ASSAY_TEST Inhibition of Fungal Growth, detection method Absorption (OD530), plate type 384well, NBS, CORNING #3640
Description: Antifungal activity against Candida albicans ATCC 90028 (CO-ADD:FG_001); MIC in YNB media using NBS plates, by OD630

[7] = system: Staphylococcus aureus; test: microbe, parasite or virus in culture; conditions: ATCC 43300, 18 h, ASSAY_TEST Inhibition of Bacterial Growth, detection method Absorption (OD600), MEDIA CAMHB, plate type 384well, NBS, CORNING #3640
Description: Antibacterial activity against Staphylococcus aureus MRSA ATCC 43300 (CO-ADD:GP_020); MIC in CAMBH media, using NBS plates, by OD(600)

[8] = system: Acinetobacter baumannii; test: microbe, parasite or virus in culture; conditions: ATCC 19606, 18 h, ASSAY_TEST Inhibition of Bacterial Growth, detection method Absorption (OD600), MEDIA CAMHB, plate type 384well, NBS, CORNING #3640
Description: Antibacterial activity against Acinetobacter baumannii ATCC 19606 (CO-ADD:GN_034); MIC in CAMBH media using NBS plates, by OD600

[9] = system: Cryptococcus neoformans
Description: Antifungal activity against Cryptococcus neoformans H99 ATCC 208821 (CO-ADD:FG_002); MIC in YNB media using NBS plates, by Resazurin OD(600-570)

Row | SMILES | MIC [1] | MIC [2] | MIC [3] | MIC [4] | MIC [6] | MIC [7] | MIC [8] | MIC [9] | CC50 [5]
1 | C[C@@H](NC(=O)c1ccccc1-c1ccccc1)B(O)O | > 20 µM | > 20 µM | > 20 µM | > 20 µM | > 20 µM | > 20 µM | > 20 µM | > 20 µM | > 20 µM
2 | Cc1c[nH]c(=O)nc1NCc1ccccc1 | > 20 µM | > 20 µM | > 20 µM | > 20 µM | > 20 µM | > 20 µM | > 20 µM | > 20 µM | > 20 µM
3 | O=C1NC(=S)N/C1=C\c1cc(Br)cc(Br)c1O | > 20 µM | 20 µM (≈ 7.56 µg/mL) | > 20 µM | > 20 µM | > 20 µM | > 20 µM | > 20 µM | > 20 µM | > 20 µM
4 | CC(=O)O[C@H]1C[C@@]2(C)[C@@H](C[C@@H](O)[C@H]3[C@@]4(C)CC[C@@H](O)[C@@H](C)[C@@H]4CC[C@@]32C)/C1=C(\CCC=C(C)C)C(=O)O [FUSIDIC ACID] | > 20 µM | > 20 µM | > 20 µM | > 20 µM | > 20 µM | 0.312 µM (≈ 0.161 µg/mL) | > 20 µM | > 20 µM | > 20 µM
5 | CCC(C)NCC(O)Cn1c2ccc(Cl)cc2c2cc(Cl)ccc21 (stereo unspecified) | > 20 µM | > 20 µM | > 20 µM | > 20 µM | > 20 µM | 20 µM (≈ 7.31 µg/mL) | > 20 µM | > 20 µM | 6.84 µM
6 | Cc1oncc1C(=O)Nc1ccc(C(F)(F)F)cc1 [LEFLUNOMIDE] | > 20 µM | > 20 µM | > 20 µM | > 20 µM | > 20 µM | > 20 µM | > 20 µM | > 20 µM | > 20 µM
7 | CCc1c(O)nc2ccc(F)cc2c1OCC1CCC1 | > 20 µM | > 20 µM | > 20 µM | > 20 µM | > 20 µM | > 20 µM | > 20 µM | > 20 µM | > 20 µM
8 | CC1(C)Cc2c(C#N)c(SCCc3ccccc3)nc(N3CCOCC3)c2CO1 | > 20 µM | > 20 µM | > 20 µM | > 20 µM | > 20 µM | > 20 µM | > 20 µM | > 20 µM | > 20 µM
9 | COc1ccc(OCc2ccc(COc3c(Cl)cccc3Cl)cc2)c(Cl)c1 | > 20 µM | > 20 µM | > 20 µM | > 20 µM | > 20 µM | > 20 µM | > 20 µM | > 20 µM | > 20 µM
10 | CNC(=O)C1O[C@@H](n2cnc3c(NCc4cccc(I)c4)nc(Cl)nc32)[C@H](O)[C@@H]1O (stereo partly specified) | > 20 µM | > 20 µM | > 20 µM | > 20 µM | > 20 µM | > 20 µM | > 20 µM | > 20 µM | 18.3 µM
11 | Cc1c(OCC(F)(F)F)ccnc1C[S+]([O-])c1nc2ccccc2[nH]1 (stereo unspecified) [LANSOPRAZOLE] | > 20 µM | > 20 µM | > 20 µM | > 20 µM | > 20 µM | > 20 µM | > 20 µM | > 20 µM | > 20 µM
12 | CC1CCc2c(N3CCC(O)CC3)c(F)cc3c(=O)c(C(=O)O)cn1c23 (stereo unspecified) [NADIFLOXACIN] | 20 µM (≈ 7.21 µg/mL) | ≤ 0.156 µM | 1.25 µM (≈ 0.45 µg/mL) | 0.625 µM (≈ 0.225 µg/mL) | > 20 µM | ≤ 0.156 µM | 20 µM (≈ 7.21 µg/mL) | > 20 µM | > 20 µM

The next lines start with results.

Row | MIC [1] | MIC [2] | MIC [3] | MIC [4] | MIC [6] | MIC [7] | MIC [8] | MIC [9] | SMILES | CC50 [5]
13 | > 20 µM | > 20 µM | > 20 µM | > 20 µM | 0.312 µM (≈ 0.111 µg/mL) | > 20 µM | > 20 µM | 0.625 µM (≈ 0.221 µg/mL) | N#C/C(=C1/SC[C@H](c2ccc(Cl)cc2Cl)S1)n1ccnc1 | > 20 µM
14 | > 20 µM | > 20 µM | > 20 µM | > 20 µM | > 20 µM | > 20 µM | > 20 µM | > 20 µM | COc1ccc(C)cc1NC(=O)c1ccc(S(=O)(=O)N2CCCCC2)cc1 | > 20 µM
15 | > 20 µM | > 20 µM | > 20 µM | > 20 µM | > 20 µM | > 20 µM | > 20 µM | > 20 µM | CC(C)(C)c1ccc(Oc2ccc(N)cc2)cc1 | > 20 µM
16 | > 20 µM | > 20 µM | > 20 µM | > 20 µM | > 20 µM | > 20 µM | > 20 µM | > 20 µM | COc1ccc(NS(=O)(=O)c2ccc(Cl)s2)cn1 | > 20 µM
17 | > 20 µM | > 20 µM | > 20 µM | > 20 µM | > 20 µM | > 20 µM | > 20 µM | > 20 µM | NC(=O)c1nccn([C@@H]2O[C@H](CO)[C@@H](O)[C@H]2O)c1=O | > 20 µM
18 | > 20 µM | > 20 µM | > 20 µM | > 20 µM | > 20 µM | > 20 µM | > 20 µM | > 20 µM | C(=C\c1nc2ccccc2[nH]1)/c1ccc2c(c1)OCO2 | > 20 µM
19 | > 20 µM | 5 µM (≈ 1.77 µg/mL) | > 20 µM | > 20 µM | > 20 µM | 2.5 µM (≈ 0.886 µg/mL) | > 20 µM | > 20 µM | COc1cc(Cc2cnc(N)nc2N)c2c(c1OC)OC(C1CC1)C=C2 (stereo unspecified) | > 20 µM
20 | > 20 µM | > 20 µM | > 20 µM | > 20 µM | > 20 µM | 5 µM (≈ 1.52 µg/mL) | > 20 µM | > 20 µM | N#Cc1c(F)c(Cl)c(NCc2ccccc2)c(C#N)c1F | 5.16 µM
21 | > 20 µM | > 20 µM | > 20 µM | > 20 µM | > 20 µM | > 20 µM | > 20 µM | > 20 µM | Nc1nc2c(ncn2COC(CO)CO)c(=O)[nH]1 [GANCICLOVIR] | > 20 µM
22 | > 20 µM | > 20 µM | > 20 µM | > 20 µM | > 20 µM | > 20 µM | > 20 µM | > 20 µM | CCCCc1ccc(-c2nc(C)c(C(=O)OC)s2)cc1 | > 20 µM
23 | > 20 µM | > 20 µM | > 20 µM | > 20 µM | > 20 µM | > 20 µM | > 20 µM | > 20 µM | NC(=O)[C@@H]1CC[C@@H]2CN1C(=O)N2OS(=O)(=O)O | > 20 µM
24 | > 20 µM | > 20 µM | > 20 µM | > 20 µM | > 20 µM | > 20 µM | > 20 µM | > 20 µM | CCCCc1ccc(-c2cc(C(=O)O)cc(-c3ccc(Cl)cc3)n2)cc1 | > 20 µM
25 | > 20 µM | > 20 µM | > 20 µM | > 20 µM | > 20 µM | > 20 µM | > 20 µM | > 20 µM | CC#C[C@]1(O)CC[C@H]2[C@@H]3CCC4=CC(=O)CCC4=C3[C@@H](c3ccc(N(C)C)cc3)C[C@@]21C [MIFEPRISTONE] | > 20 µM
26 | > 20 µM | > 20 µM | > 20 µM | > 20 µM | > 20 µM | > 20 µM | > 20 µM | > 20 µM | CCCCCOc1ccc(/C=C2\Oc3c(ccc(O)c3O)C2=O)c(O)c1 | > 20 µM
27 | > 20 µM | > 20 µM | > 20 µM | > 20 µM | > 20 µM | > 20 µM | > 20 µM | > 20 µM | Nc1cc(-c2nc3ccccc3[nH]2)n[nH]c1=O | > 20 µM
28 | > 20 µM | > 20 µM | > 20 µM | > 20 µM | ≤ 0.156 µM | > 20 µM | > 20 µM | 0.312 µM (≈ 0.137 µg/mL) | C[C@@H](c1nc(-c2ccc(C#N)cc2)cs1)[C@](O)(Cn1cncn1)c1ccc(F)cc1F [RAVUCONAZOLE] | > 20 µM
29 | > 20 µM | > 20 µM | > 20 µM | > 20 µM | > 20 µM | > 20 µM | > 20 µM | > 20 µM | CCc1nc2ccccn2c1C(=O)NCc1ccccc1 | > 20 µM
